BindingDB's records for doi:10.1021/jm00065a013 (Washington University, 1993)
*1 amine or outer side, *2 acyl side, *3 side chain or, on linkers, in order; H or OH if unused. Where a SMILES comes first, the peptide text is derived from it. Bridges are numbered along the chain shown (N, C = ends). Roman numbers before positions name the chains, in order. [ ]: non-standard residue; d: D form. Pro(4R-SH) = O=C([C@@H]1C[C@@H](S[*:3])CN1[*:1])[*:2]; Pro(4S-SH) = O=C([C@@H]1C[C@H](S[*:3])CN1[*:1])[*:2]; hCys = N[C@@H](CCS)C(=O)O; Sar = CNCC(=O)O

Biological target: Type-2 angiotensin II receptor (Oryctolagus cuniculus)
Assay: In vitro binding affinity at angiotensin II (type 2) receptor in rabbit uterus.

| Compound | IC50 [nM] |
| --- | --- |
| CNCC(=O)N[C@@H](CCCNC(=N)N)C(=O)N1C[C@@H]2C[C@H]1C(=O)N[C@@H](Cc1ccc(O)cc1)C(=O)N[C@H](C(=O)N[C@@H](Cc1cnc[nH]1)C(=O)N1CCC[C@H]1C(=O)N[C@@H](Cc1ccccc1)C(=O)O)CSS[C@H]1C[C@@H](C(=O)N[C@@H](Cc3ccc(O)cc3)C(=O)N[C@H](C(=O)N[C@@H](Cc3cnc[nH]3)C(=O)N3CCC[C@H]3C(=O)N[C@@H](Cc3ccccc3)C(=O)O)CSS2)N(C(=O)[C@H](CCCNC(=N)N)NC(=O)CNC)C1 [bis c[Sar1-Arg2-MPc3-Tyr4-Cys5-His6-Pro7-Phe8]antiparallel] (I: H-[Sar]R[Pro(4S-SH)]YCHPF-OH / II: H-[Sar]R[Pro(4S-SH)]YCHPF-OH; disulfide I:3-II:5, I:5-II:3) | 25 |
| CNCC(=O)N[C@@H](CCCNC(=N)N)C(=O)N1C[C@@H]2C[C@H]1C(=O)N[C@@H](Cc1ccc(O)cc1)C(=O)N[C@H](C(=O)N[C@@H](Cc1cnc[nH]1)C(=O)N1CCC[C@H]1C(=O)N[C@@H](Cc1ccccc1)C(=O)O)CSSC[C@H](C(=O)N[C@H](Cc1cnc[nH]1)C(=O)N1CCC[C@@H]1C(=O)N[C@H](Cc1ccccc1)C(=O)O)NC(=O)[C@@H](Cc1ccc(O)cc1)NC(=O)[C@H]1C[C@H](CN1C(=O)[C@@H](CCCNC(=N)N)NC(=O)CNC)SS2 [bis c[Sar1-Arg2-MPc3-Tyr4-Cys5-His6-Pro7-Phe8]parallel] | 23 |
| CNCC(=O)N[C@@H](CCCN=C(N)N)C(=O)N[C@H]1CSSC[C@@H](C(=O)N[C@@H](Cc2c[nH]cn2)C(=O)N2CCC[C@H]2C(=O)N[C@@H](Cc2ccccc2)C(=O)O)NC(=O)[C@H](Cc2ccc(O)cc2)NC(=O)[C@@H](NC(=O)[C@H](CCCN=C(N)N)NC(=O)CNC)CSSC[C@@H](C(=O)N[C@@H](Cc2c[nH]cn2)C(=O)N2CCC[C@H]2C(=O)N[C@@H](Cc2ccccc2)C(=O)O)NC(=O)[C@H](Cc2ccc(O)cc2)NC1=O [bis-c[Sar1-Arg2-Cys3-Tyr4-Cys5-His6-Pro7-Phe8](antiparallel)] (I: H-[Sar]RCYCHPF-OH / II: H-[Sar]RCYCHPF-OH; disulfide I:3-II:5, I:5-II:3) | 65 |
| CNCC(=O)N[C@@H](CCCN=C(N)N)C(=O)N[C@H]1CC(=O)NCCCC[C@@H](C(=O)N[C@@H](Cc2c[nH]cn2)C(=O)N2CCC[C@H]2C(=O)N[C@@H](Cc2ccccc2)C(=O)O)NC(=O)[C@H](Cc2ccc(O)cc2)NC1=O [c[Sar1-Arg2-Asp3-Tyr4-Lys5-His6-Pro7-Phe8]] (H-[Sar]RDYKHPF-OH; lactam 3-5) | 86 |

More lines, now with the values ahead:

| IC50 [nM] | Compound |
| --- | --- |
| 80 | CNCC(=O)N[C@@H](CCCNC(=N)N)C(=O)N[C@H]1CCSSCC[C@@H](C(=O)N[C@@H](Cc2cnc[nH]2)C(=O)N2CCC[C@H]2C(=O)N[C@@H](Cc2ccccc2)C(=O)O)NC(=O)[C@H](Cc2ccc(O)cc2)NC1=O [2-({1-[2-{[11-[5-Guanidino-2-(2-methylamino-acetylamino)-pentanoylamino]-8-(4-hydroxy-benzyl)-7,10-dioxo-1,2-dithia-6,9-diaza-cyclotridecane-5-carbonyl]-amino}-3-(3H-imidazol-4-yl)-propionyl]-pyrrolidine-2-carbonyl}-amino)-3-phenyl-propionic acid] (H-[Sar]R[hCys]Y[hCys]HPF-OH; disulfide 3-5) |
| 0.82 | CNCC(=O)N[C@@H](CCCNC(=N)N)C(=O)N[C@H]1CSS[C@@H]2C[C@@H](C(=O)N[C@@H](Cc3cnc[nH]3)C(=O)N3CCC[C@H]3C(=O)N[C@@H](Cc3ccccc3)C(=O)O)N(C2)C(=O)[C@H](Cc2ccc(O)cc2)NC1=O [c[Sar1-Arg2-Cys3-Tyr4-MPt5-His6-Pro7-Phe8]] (H-[Sar]RCY[Pro(4R-SH)]HPF-OH; disulfide 3-5) |
| 9.1 | CNCC(=O)N[C@@H](CCCNC(=N)N)C(=O)N[C@H]1CCSS[C@H]2C[C@@H](C(=O)N[C@@H](Cc3cnc[nH]3)C(=O)N3CCC[C@H]3C(=O)N[C@@H](Cc3ccccc3)C(=O)O)N(C2)C(=O)[C@H](Cc2ccc(O)cc2)NC1=O [c[Sar1-Arg2-Hcy3-Tyr4-MPc5-His6-Pro7-Phe8]] (H-[Sar]R[hCys]Y[Pro(4S-SH)]HPF-OH; disulfide 3-5) |
| 12 | CNCC(=O)N[C@@H](CCCNC(=N)N)C(=O)N1C[C@@H]2C[C@H]1C(=O)N[C@@H](Cc1ccc(O)cc1)C(=O)N[C@H](C(=O)N[C@@H](Cc1cnc[nH]1)C(=O)N1CCC[C@H]1C(=O)N[C@@H](Cc1ccccc1)C(=O)O)CSS2 [c[Sar1-Arg2-MPc3-Tyr4-Cys5-His6-Pro7-Phe8]] (H-[Sar]R[Pro(4S-SH)]YCHPF-OH; disulfide 3-5) |
